Where a name gives a salt, the structure may show the parent alone.
Columns and labels:
[1] = test system: DOPAC (3,4-dihydroxyphenylacetic acid) in the rat striatum; assay: Increase of DOPAC in the rat striatum after systemic administration (in vivo neurochemistry); conditions: sc, systemic administration (s.c.), curve fitting, 95% range printed in the row below each value, read-out: ED50 DOPAC* (estimated ED50 on increase of DOPAC in the rat striatum)
Description: After the behavioural activity sessions, the rats are decapitated and their brains rapidly taken out and put on an ice-cold petri-dish. The limbic forebrain, the striatum, the frontal cortex and the remaining hemispheral parts of each rat are dissected and frozen. Each brain part is subsequently analyzed with respect to its content of monoamines and their metabolites.
The monoamine transmitter substances (NA (noradrenaline), DA (dopamine), 5-HT (serotonin)) as well as their amine (NM (normethanephrine), 3-MT (3-methoxytyramine)) and acid (DOPAC (3,4-dihydroxyphenylacetic acid), 5-HIAA (5-hydroxyindoleacetic acid), HVA (homovanillic acid)) metabolites are quantified in brain tissue homogenates by HPLC separations and electrochemical detection
The analytical method is based on two chromatographic separations dedicated for amines or acids. Two chromatographic systems share a common auto injector with a 10-port valve and two sample loops for simultaneous injection on the two systems. Both systems are equipped with a reverse phase column (Luna C18(2), dp 3 μm, 50*2 mm i.d., Phenomenex) and electrochemical detection is accomplished at two potentials on glassy carbon electrodes (MF-1000, Bioanalytical Systems, Inc.). The column effluent is passed via a T-connection to the detection cell or to a waste outlet. This is accomplished by two solenoid valves, which block either the waste or detector outlet. By preventing the chromatographic front from reaching the detector, better detection conditions are achieved. The aqueous mobile phase (0.4 ml/min) for the acid system contains citric acid 14 mM, sodium citrate 10 mM, MeOH 15% (v/v) and EDTA 0.1 mM. Detection potentials relative to Ag/AgCl reference are 0.45 and 0.60V. The aqueous ion pairing mobile phase (0.5 ml/min) for the amine system contains citric acid 5 mM, sodium citrate 10 mM, MeOH 9% (v/v), MeCN 10.5% v/v), decane sulfonic acid 0.45 mM, and EDTA 0.1 mM. Detection potentials relative to Ag/AgCl reference are 0.45 and 0.65V.
ED50 values for the increase of DOPAC in striatum are calculated by curve fitting.

drug-naive rats = assay: Locomotor activity in drug-naive rats (in vivo behaviour); design: species or system rat; conditions: recorded for 60 minutes immediately after drug administration
Description: Photobeam sensors are spaced 2.5 cm apart.

Compound | melting point [°C] | ED50 [1] [µmol/kg] | Locomotor activity (counts/60 min ± SEM) (drug-naive rats; 3.7 μmol/kg) [counts/60 min] | Locomotor activity (counts/60 min ± SEM) (drug-naive rats; 11 μmol/kg) [counts/60 min] | Locomotor activity (counts/60 min ± SEM) (drug-naive rats; 33 μmol/kg) [counts/60 min]
CCCNCC1COc2ccc(OS(=O)(=O)C(F)(F)F)cc2O1 (centres unmarked) (as salt: fumaric acid salt) [Example 6, 3-[(PROPYLAMINO)METHYL]-2,3-DIHYDRO-1,4-BENZODIOXIN-6-YL TRIFLUOROMETHANESULFONATE] | 163 |  |  |  | 
CCCNC[C@H]1COc2ccc(Br)cc2O1 (as salt: hydrochloric acid salt) [Example 1, N-{[(2S)-7-BROMO-2,3-DIHYDRO-1,4-BENZODIOXIN-2-YL]METHYL}PROPAN-1-AMINE] | 194 |  |  |  | 
Fc1ccc2c(c1)O[C@@H](CN1CCCC1)CO2 (as salt: hydrochloric acid salt) [Example 9, 1-{[(2S)-7-FLUORO-2,3-DIHYDRO-1,4-BENZODIOXIN-2-YL]METHYL}PYRROLIDINE] | 215 |  |  |  | 
CCCNC[C@H]1COc2ccc(C(F)(F)F)cc2O1 (as salt: hydrochloric acid salt) [Example 58, N-{[(2S)-7-(TRIFLUOROMETHYL)-2,3-DIHYDRO-1,4-BENZODIOXIN-2-YL]METHYL}PROPAN-1-AMINE] | 166 |  |  |  | 
CCCNC[C@H]1COc2ccc(Br)cc2O1 [Example 1, N-{[(2S)-7-BROMO-2,3-DIHYDRO-1,4-BENZODIOXIN-2-YL]METHYL}PROPAN-1-AMINE] |  | 3.4 | 6714 ± 601 | 5111 ± 620 | 1326 ± 131
CCCNCC1COc2ccc(OS(=O)(=O)C(F)(F)F)cc2O1 (centres unmarked) [Example 6, 3-[(PROPYLAMINO)METHYL]-2,3-DIHYDRO-1,4-BENZODIOXIN-6-YL TRIFLUOROMETHANESULFONATE] |  | 12 | 9495 ± 2036 | 10705 ± 1903 | 8064 ± 707
CCCNCC1COc2ccc(F)c(F)c2O1 (centres unmarked) [Example 7, N-[(7,8-DIFLUORO-2,3-DIHYDRO-1,4-BENZODIOXIN-2-YL)METHYL]PROPAN-1-AMINE] |  | 3.1 | 7932 ± 2067 | 6884 ± 400 | 4408 ± 212
CCCNCC1COc2c(F)cc(F)cc2O1 (centres unmarked) [Example 8, N-[(5,7-DIFLUORO-2,3-DIHYDRO-1,4-BENZODIOXIN-2-YL)METHYL]PROPAN-1-AMINE] |  | 14 | 9266 ± 2706 | 8320 ± 2405 | 5457 ± 536
Fc1ccc2c(c1)O[C@@H](CN1CCCC1)CO2 [Example 9, 1-{[(2S)-7-FLUORO-2,3-DIHYDRO-1,4-BENZODIOXIN-2-YL]METHYL}PYRROLIDINE] |  |  | 5419 ± 1414 | 2769 ± 647 | 1944 ± 482
CCCNC[C@H]1COc2ccc(C(F)(F)F)cc2O1 [Example 58, N-{[(2S)-7-(TRIFLUOROMETHYL)-2,3-DIHYDRO-1,4-BENZODIOXIN-2-YL]METHYL}PROPAN-1-AMINE] |  | < 3.7 |  |  | 

More lines, main results first:

melting point [°C] | Compound | ED50 [1] [µmol/kg] | Locomotor activity (counts/60 min ± SEM) (drug-naive rats; 3.7 μmol/kg) [counts/60 min] | Locomotor activity (counts/60 min ± SEM) (drug-naive rats; 11 μmol/kg) [counts/60 min] | Locomotor activity (counts/60 min ± SEM) (drug-naive rats; 33 μmol/kg) [counts/60 min]
262 | CCCNCC1COc2cc(F)c(F)cc2O1 (centres unmarked) (as salt: hydrobromic acid salt) [Example 2, N-[(6,7-DIFLUORO-2,3-DIHYDRO-1,4-BENZODIOXIN-2-YL)METHYL]PROPAN-1-AMINE] |  |  |  | 
187 | CCCNCC1COc2ccc(F)cc2O1 (centres unmarked) (as salt: hydrochloric acid salt) [Example 3, N-[(7-FLUORO-2,3-DIHYDRO-1,4-BENZODIOXIN-2-YL)METHYL]PROPAN-1-AMINE] |  |  |  | 
191 | CCCNCC1COc2ccc(Cl)cc2O1 (centres unmarked) (as salt: hydrochloric acid salt) [Example 4, N-[(7-CHLORO-2,3-DIHYDRO-1,4-BENZODIOXIN-2-YL)METHYL]PROPAN-1-AMINE] |  |  |  | 
184 | CCCNCC1COc2ccc(F)c(F)c2O1 (centres unmarked) (as salt: hydrochloric acid salt) [Example 7, N-[(7,8-DIFLUORO-2,3-DIHYDRO-1,4-BENZODIOXIN-2-YL)METHYL]PROPAN-1-AMINE] |  |  |  | 
157 | CCCNCC1COc2c(F)cc(F)cc2O1 (centres unmarked) (as salt: hydrochloric acid salt) [Example 8, N-[(5,7-DIFLUORO-2,3-DIHYDRO-1,4-BENZODIOXIN-2-YL)METHYL]PROPAN-1-AMINE] |  |  |  | 

Source: patent publication US20110105462A1, “MODULATORS OF DOPAMINE NEUROTRANSMISSION” (NSAB, FILIAL AF NEUROSEARCH SWEDEN AB, SVERIGE, priority 2008, published 2011)
